Test results reported in patent US20240423988A1, “Improvement of Tumor Immunogenicity by Means of Splicing-Controlling Compound” (Kyoto University, priority 2021, published 2024).

What was measured:
[1] = tested on: MC38 tumors; test: MC38 tumor-bearing model; format: in vivo
Procedure: [FIG. 1-1] FIG. 1. Chemical activation of SRSFs exerts antitumor effects in a CD8^+ T cell-dependent manner and potentiates the response to PD-1 blockade. A: Experimental procedure involving an MC38 tumor-bearing model. B and C: Tumor volumes (B) and survival (C) are shown (n=12/group). ** represents p<0.01; and *** represents p<0.001. D and E: MC38 cells were treated with Compound 1 for 72 hours (D) or for the indicated time (E). Cell proliferation and cell death were measured using CCK-8 and LDH assays, respectively (n=3/group). F and G: Representative images (F) and quantitative data (G) of flow cytometry are shown (n=[…]/group). * represents p<0.05. H: Experimental procedure of antibody injection in an MC38 tumor-bearing model.
[FIG. 1-2] Continuation of FIG. 1. I to L; Representative images (I and K) and quantitative data (J and L) of flow cytometry are shown (n=7/group for spleen (J); n=10/group for tumor (L)). *** represents p<0.001. M and N: Tumor growth curves (M) and tumor volumes on day 23 (N) are shown (n=10/group). * represents p<0.05. “ns” represents “not significant”. O and P: Tumor volumes of mice (n=12/group) are shown collectively (O) or individually (P). ** represents p<0.01, and *** represents p<0.001, vs. isotype IgG+vehicle. # represents p<0.05, and […] represents p<0.001, between the indicated groups. Q: Changes in body weight of mice (n=5/group). In FIG. 1, all data are shown as the mean±SEM. All experiments were performed at least twice. Statistical significance was determined using unpaired Student's t-test for (G), (J), (L), and (N), and one-way ANOVA followed by Bonferroni's multiple comparisons test for (B) and (O).
First, in vivo activity was assessed using syngeneic MC38 tumors intradermally transplanted into […] mice (FIG. 1-1A).
Based on these observations, whether the Compound 1 induced antitumor effects were due to enhanced cancer immunity was then examined. Endogenous CD8^+ T cells were depleted using CD8-depleting antibody (αCD8), and the antitumor effects of Compound 1 administration were evaluated (FIG. 1-1H).

[2] = tested on: MC38 cells; test: RT-PCR analysis with neojunction primers; format: cell-based, murine; settings: 10 μM, 6 hours
Procedure: [FIG. 5-2] Continuation of FIG. 5. D and E: RT-PCR analysis for splice-neoantigen coding forms (splice-NA forms) in MC38 cells treated with 10 µM Compound 1 or vehicle control (0.1% DMSO) for 6 hours. Actb served as a loading control. * represents p<0.05, ** represents p<0.01, and *** represents p<0.001. F: Splice-neoantigen producing rates calculated from RNA-seq data (n=3 biological replicates) are indicated as the APSI (Compound 1-DMSO). All data are shown as the mean±SEM. All experiments were performed at least twice. Statistical significance was determined using unpaired Student's t-test for (B) and (E).
In addition to the RNA-seq analysis, the induction of these splice-neoantigen-coding transcripts via treatment with Compound 1 was also validated using RT-PCR analysis with neojunction primers in MC38 cells (FIGS. 5-2D and 5-2E). The immunogenicity of the identified splice-neoantigens was confirmed using an IFN-γ ELISpot assay.
Total RNA was extracted from cells using a RNeasy Mini Kit (Qiagen), according to the manufacturer's protocol, and subjected to reverse transcription using a High Capacity cDNA Reverse Transcription Kit (Applied Biosystems, Foster City, CA). Genes were amplified with KOD One DNA polymerase (ToYoBo) and target-specific primer sets. […] Ethidium bromide-stained images were captured using a ChemiDoc MP Imaging System and the data were analyzed using ImageJ software. […]

[3] = tested on: colon, lung, and liver tissues; test: RNA-seq of normal tissues from Compound 1-administered mice; format: in vivo
Text: In addition, the RNA-seq data corresponding to colon, lung, and liver tissues from Compound 1-administered mice was also examined to analyze the extent of splicing alterations. […] Considering that immune responses were not triggered by Compound 1 in these tissues, these altered splicing events in normal tissues were likely irrelevant to immunogenicity (FIGS. 2-2I to 2-3M).

[4] = syngeneic MC38 tumors intradermally transplanted

Clc1nc(NCc2ccco2)c2[nH]cnc2n1 [Compound 1]
tumor suppression when CD8^+ T cells were depleted ([1]; CD8-depleting antibody (αCD8)): not effective
suppressed tumor growth ([1]; day 23, vs. isotype IgG+vehicle): 28.5%
frequency of tumor-infiltrating CD8+ T cells ([1]; extracted tumors, flow cytometry): about 1.5 fold
changes in the expression of PD-L1 ([1]; host dendritic cells or macrophages): not detected
body weight or apparent adverse effects ([1]; mouse, in vivo): no change in body weight or apparent adverse effects
in vivo tumor growth [1, 4]: tumor growth suppression
survival [1, 4]: prolonged survival
splice-neoantigen-coding transcripts [2]: induction
induced splicing events fewer in normal tissues than in MC38 cells ([3]; colon, lung, liver): 50-60%
validated splice-neoantigen forms in normal tissues ([3]; data not shown): none of the validated splice-neoantigen forms were significantly induced
